Source: patent US7323541B2, “Polypeptide DNA thereof and use of the same” (Takeda Pharmaceutical Company Limited, priority 2001, dated 2008)
Residue numbers refer to the chain shown, from its start. Where no end group is shown, it is not given here.

Assays:
[1] = biological target: T1, TGR23-1 expressing CHO cells (Homo sapiens, UniProt Q6W5P4); experiment: Intracellular Ca ion concentration increasing activity using FLIPR; type: cell-based; details: variety of concentrations
T1 construct: the clones having the cDNA of TGR23-1, which is contained in pTB2173, were selected; expressed in transfected cells; host or cells: hamster CHO/dhfr- cells, vector pAKKO-111H (pAKKO-TGR23-1), clones No. 49 and No. 52
T1 sequence (Q6W5P4 1-371): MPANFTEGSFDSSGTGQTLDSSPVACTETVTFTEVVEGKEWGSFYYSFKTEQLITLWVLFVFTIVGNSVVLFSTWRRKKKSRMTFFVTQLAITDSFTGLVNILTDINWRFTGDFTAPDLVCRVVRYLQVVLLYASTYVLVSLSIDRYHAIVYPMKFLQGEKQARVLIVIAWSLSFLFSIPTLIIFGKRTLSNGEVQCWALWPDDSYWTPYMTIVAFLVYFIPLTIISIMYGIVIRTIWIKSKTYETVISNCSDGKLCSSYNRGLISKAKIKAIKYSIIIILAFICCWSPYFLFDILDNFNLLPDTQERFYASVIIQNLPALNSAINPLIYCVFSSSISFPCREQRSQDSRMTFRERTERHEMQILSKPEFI
Experimental: (§1) An enhancing activity of intracellular Ca^2+ release was assayed using FLIPR (Molecular Devices, Inc.). The CHO/TGR23-2 cells prepared in Example 1 and selected in Example 2 were plated on 96-well plate at 3×10^4 cells/well and cultured for 24 hours. A loading buffer was prepared by adding 1 vial of Fluo 3-AM to 10 ml of Hanks' solution (pH7.4) containing 2.5 mM Probenecid and 20 mM HEPES (hereafter, Hanks' solution (pH7.4) containing 2.5 mM Probenecid and 20 mM HEPES may be referred to as a washing buffer). The culture medium was discarded from the culture plate and 100 μl/well of the loading buffer were added to the cells. Then, the cells were incubated for 60 minutes in the incubator. After the loading buffer was removed from the culture plate and the cells were washed with the washing buffer, the plate was put in place of FLIPR. A sample was prepared by adding a sample buffer, which 2 mg/ml BSA and 1 mg/ml CHAPS were added to the washing buffer, to lyophilized product, stirring and treating by ultrasonication for 30 minutes, and transferred to 96-well sample plate. This sample plate was also put in place for assay. The enhancing activity of intracellular Ca^2+ release was measured as an increase of fluorescent intensity, which is raised by addition of the sample. Human TGR23-2 ligand (1-20) obtained in Example 17 was administered to TGR23-1 expressing CHO cells and TGR23-2 expressing CHO cells at a variety of concentrations according to the method described in Example 5, and the increasing activity of intracellular Ca ion concentration was determined using FLIPR. […] Rat TGR23-2 ligand (1-18) prepared by the method described in Example 19 and mouse TGR23-2 ligand (1-20) prepared by the method described in Example 20 were administered to TGR23-1 expressing CHO cells and TGR23-2 expressing CHO cells at a variety of concentrations according to the method described in Example 5, and the increasing activity of intracellular Ca ion concentration was determined using FLIPR.

[2] = biological target: T2, TGR23-2 expressing CHO cells (Homo sapiens, UniProt Q6W5P4, N107I/Q344R); experiment: as above; type: cell-based; details: variety of concentrations
T2 construct: the clones having the cDNA of TGR23-2, which is contained in pTB2174, were selected; expressed in transfected cells; host or cells: hamster CHO/dhfr- cells, vector pAKKO-111H (pAKKO-TGR23-2)
T2 sequence (Q6W5P4 1-371 N107I/Q344R): T1 sequence (Q6W5P4 1-371) with N107I, Q344R
Experimental: as §1

[3] = biological target: T3, membrane fraction of TGR23-2 expressing CHO cells (Homo sapiens, UniProt Q6W5P4, N107I/Q344R); experiment: GTPγS binding activity in membrane fraction; type: biochemical
T3 construct: the clones having the cDNA of TGR23-2, which is contained in pTB2174, were selected; expressed in transfected cells; host or cells: hamster CHO/dhfr- cells, vector pAKKO-111H (pAKKO-TGR23-2)
T3 sequence (Q6W5P4 1-371 N107I/Q344R): T1 sequence (Q6W5P4 1-371) with N107I, Q344R
Experimental: Enhancing activity of binding of [^35S]-Guanosine 5′-(γ-thio) triphosphate in the membrane fraction of TGR23-2 expressing CHO cells was measured by the following method. Firstly, it is described about preparation of membrane fraction. Twenty (20) ml of homogenation buffer (10 mM HEPES (pH7.3), 5 mM EDTA, 0.52 mM PMSF, 10 μg/ml pepstatin, 8 μg/ml E64, 20 μg/ml leupeptin) was added to 8×10^7 of TGR23-2 expressing CHO cells, and the cells were disrupted using Polytron (12,000 rpm, 30 seconds×3 times). The cell-disrupted fluids were centrifuged (1,000 g for 15 minutes) to get supernatant. Subsequently the supernatant was ultracentrifuged (Beckman type 30 rotor, 30,000 rpm, one hour), and the precipitate obtained was collected as a membrane fraction of TGR23-2 expressing CHO cells. The GTPγS binding activity was assayed as follows. The membrane fraction of TGR23-2 expressing CHO cells was diluted with membrane dilution buffer (50 mM Tris-HCl buffer (pH7.4), 5 mM MgCl2, 150 mM NaCl, 0.03% NaN3, 0.1% BSA, 1 μM GDP) to get cell membrane fraction solution for assay at the protein concentration of […]. Two (2) μl of 50 nM [^35S]-guanosine 5′-(γ-thio) triphosphate (NEN) and sample were added to 200 μl of cell membrane fraction solution for assay, and the mixture was incubated at 25° C. for one (1) hour. The mixture was filtered, and the filter was washed twice with 1.5 ml of washing buffer (50 mM Tris-HCl buffer (pH7.4), 5 mM MgCl2, 1 mM EDTA, 0.03% NaN3, 0.1% BSA). Then the radioactivity on the filter was measured by liquid scintillation counter. Human TGR23-2 ligand (1-20) prepared by the method described in Example 17, rat TGR23-2 ligand (1-18) prepared by the method described in Example 19 and mouse TGR23-2 ligand (1-20) prepared by the method described in Example 20 were administered to TGR23-2 expressing CHO cells at a variety of concentrations according to the method described above, and the GTPγS binding activity was determined.

GTPγS binding activity [3]	Sequence	increase of intracellular Ca ion concentration [1]	increase of intracellular Ca ion concentration [2]
enhance the GTPγS binding activity	SFRNGVGSGVKKTSFRRA [rat TGR23-2 ligand (1-18), Ser-Phe-Arg-Asn-Gly-Val-Gly-Ser-Gly-Val-Lys-Lys-Thr-Ser-Phe-Arg-Arg-Ala]	clearly enhance an increase of intracellular Ca ion concentration	clearly enhance an increase of intracellular Ca ion concentration
enhance the GTPγS binding activity	SFRNGVGTGMKKTSFQRAKS [human TGR23-2 ligand (1-20)]	enhances an increase of intracellular Ca ion concentration	enhances an increase of intracellular Ca ion concentration
